Where “and” joins values, the source holds several entries; their conditions need not be identical. Equal values may be shown once.
How the values were obtained:
[1] = system: spontaneously hypertensive rats (SHR); test: Blood pressure and heart rate in anesthetized spontaneously hypertensive rats (SHR), i.v.; type: in vivo, rat; details: for % change in BP (mean arterial blood pressure ± standard error) / % change in heart rate (± standard error): four rats
Method: The compounds of this invention I, and III are effective in the treatment of hypertension.
Adult male spontaneously hypertensive rats (SHR) (Taconic Farms, Germantown, N.Y.), weighing approximately 300 g. were anesthetized with pentobarbital sodium (60 mg./kg., i.p.). The trachea was cannulated and SHR respired room air. Pulsatile arterial blood pressure was measured from a cannulated carotid artery using a Statham transducer (P23 ID). Mean arterial blood pressure was calculated as diastolic blood pressure plus 1/3 pulse pressure. Cardiac rate was monitored by a cardiotachometer which was triggered by the systolic pressure pulse. Drug solutions were administered i.v. through a catheter placed in a femoral vein. Arterial blood pressure and cardiac rate were recorded on a multichannel oscillograph (Beckman, Model R511A). Fifteen minutes were allowed to elapse following surgery for equilibration of the preparation.
In the table, column 1 gives the name of the drug, column 2 dose in μg/kg, column 3 percent change in mean arterial blood pressure plus or minus standard error and column 4, percent change in heart rate plus or minus standard error. Four rats were used at each dose level.

[2] = system: apomorphine binding sites; test: Inhibition of 3H-apomorphine binding (vs spiperone sites); details: printed as 40 to 1
Source text: With trans-(±)-2-methyl-5-n-propyl-4,4a,5,6,7,8,8a,9-octahydrooxazolo[4,5-g]quinoline; the ratio of binding, to apomorphine sites vs spiperone sites is 40 to 1.

SMILES | % change in BP (mean arterial blood pressure ± standard error) ([1]; dose 0.1 μg/kg) [%] | % change in heart rate (± standard error) ([1]; dose 0.1 μg/kg) [%] | % change in BP (mean arterial blood pressure ± standard error) ([1]; dose 1 μg/kg) [%] | % change in heart rate (± standard error) ([1]; dose 1 μg/kg) [%] | % change in BP (mean arterial blood pressure ± standard error) ([1]; dose 10 μg/kg) [%] | % change in heart rate (± standard error) ([1]; dose 10 μg/kg) [%] | Duration of change in BP ([1]; dose 100 μg/kg) | % change in heart rate (± standard error) ([1]; dose 100 μg/kg) | % change in BP (mean arterial blood pressure ± standard error) ([1]; dose 100 μg/kg) [%] | Duration of change in BP ([1]; dose 1000 μg/kg) | % change in BP (mean arterial blood pressure ± standard error) ([1]; dose 1000 μg/kg) [%] | % change in heart rate (± standard error) ([1]; dose 1000 μg/kg) [%] | ratio of binding, to apomorphine sites vs spiperone sites [2]
CCCN1CCC[C@H]2Cc3nc(N)oc3C[C@@H]21 (racemic) [Trans-(±)-2-amino-5-n-propyl-4,4a,5,6,7,8,8a,9-octahydro-oxazolo[4,5-g]quinoline] | -18.3 ± 5.7 | -8.5 ± 2.2 | -8.6 ± 1.6 | -4.4 ± 0.9 | -15.1 ± 1.1 | -5.6 ± 0.7 | * (Duration of 15 min or greater) | -17.5 ± 2.3% and -19.1 ± 3.4% |  |  |  |  | 
CCCN1CCC[C@H]2Cc3ncoc3C[C@@H]21 (racemic) [trans-(±)-5-n-propyl-4,4a,5,6,7,8,8a,9-octahydro-oxazolo[4,5-g]quinoline] |  |  | -5.0 ± 1.2 | -3.6 ± 0.5 | -10.2 ± 1.0 | -4.6 ± 0.6 | * (Duration of 15 min or greater) | -28.5 ± 2.6% | -27.4 ± 20 | * (Duration of 15 min or greater) | -37.7 ± 4.9 | -31.8 ± 3.7 | 
CCCN1CCC[C@H]2Cc3nc(C)oc3C[C@@H]21 (racemic) [Trans-(±)-2-methyl-5-n-propyl-4,4a,5,6,7,8,8a,9-octahydro-oxazolo[4,5-g]quinoline] |  |  | -3.2 ± 0.5 | -2.4 ± 0.8 | -7.0 ± 1.0 | -2.8 ± 0.4 | * (Duration of 15 min or greater) | -16.1 ± 7.6% | -19.6 ± 1.4 | * (Duration of 15 min or greater) | -26.2 ± 4.3 | -23.6 ± 4.4 | 40
